Measured values: patent US12091393B2, “Small molecule vaccine adjuvant for enhancing or prolonging immune response” (The Regents of the University of California, priority 2018, dated 2024)
Entries after “also recorded” stand apart in the source; their conditions may differ. Like-named read-outs stand apart in the source and are kept apart here.

Legend:
[1] = test system: NF-κB; assay: Measurement of NF-κB activation using THP1-Blue NF-κB cells (SEAP); type: cell-based; settings: for activity at 5 µM: 20 h, two point normalized, compound 1 as 200%; for NF-κB activity (SAR discussion, in words): evaluated in both the presence and absence of LPS
[2] = test system: NF-κB; assay: cell-based NF-κB FRET assay; settings: compound + LPS; two point normalized, compound 1 as 200%, LPS (10 ng/mL) as 100%
Text: Site A was assigned the 4-substituent of thiazole ring, site B was the thiazole ring itself, site C was the central amide bond in the structure, site D was the benzene ring bearing 1,4-carboxyl and sulfamoyl group, site E was the sulfonamide functional group and site F was the amide substituent on the sulfamoyl group.

[3] = test system: THP-1 cells; assay: Cell viability assay (MTT); type: cell-based; settings: compound 5 μM alone, 18 h, normalized to DMSO as 100%
Description: THP-1 cells were plated in 96-well plates (10^5 cells/well) in 100 μL RPMI supplemented with 10% FBS, 100 U/mL penicillin and 100 μg/ml streptomycin. Compounds were dissolved in DMSO at 1 mM stock solution and were further diluted to 10 μM in the assay medium. 100 μL of this solution was added to the cells to obtain a final compound concentration of 5 μM ([…]). After 18 h incubation, a solution of MTT in assay media (0.5 mg/mL) was added to each well and further incubated for 4 to 6 h, followed by addition of cell lysis buffer (15% w/v SDS and 0.12% v/v 12N HCl aqueous solution), incubated overnight, and then absorbance measured at 570 nm using 650 nm as reference using Tecan Infinite M200 plate reader.

[4] = compound 5 μM + LPS, LPS (10 ng/mL) as 100%, read-out: NF-κB SEAP Compound + LPS % Activation
[5] = compound 5 μM alone, LPS or DMSO as 100%, read-out: NF-κB SEAP Compound alone % Activation

Compound | activity at 5 µM [1, 4] | activity at 5 µM [1, 5] | NF-κB activity (SAR discussion, in words) [1] | NF-κB FRET Compound + LPS % Activation [2] | MTT Compound alone % Viability [3] | NF-κB activity when tested alone (in words) ([1]; compound alone, without LPS)
Cc1cccc(-c2csc(NC(=O)c3ccc(S(=O)(=O)N4CCCCC4)cc3)n2)c1C [Compound 12l, N-(4-(2,3-dimethylphenyl)thiazol-2-yl)-4-(piperidin-1-ylsulfonyl)benzamide] | 157% | 195% | retained activity | 206.60% | 98.37% | –
Cc1ccc(C)c(-c2cccc(NC(=O)c3ccc(S(=O)(=O)N4CCCCC4)cc3)n2)c1 [Compound 18b, N-(6-(2,5-dimethylphenyl)pyridin-2-yl)-4-(piperidin-1-ylsulfonyl)benzamide] | – | 99.6% | none of these molecules that replaced the thiazole functionality were active | 146.10% | 93.89% | –
Cc1ccc(-c2csc(NC(=O)c3ccc(S(=O)(=O)N4CCCCC4)cc3)n2)cc1C [Compound 12n, N-(4-(3,4-dimethylphenyl)thiazol-2-yl)-4-(piperidin-1-ylsulfonyl)benzamide] | 98% | 98.7% | inactive | 128.01% | 97.59% | –
Cc1cc(C)cc(-c2csc(NC(=O)c3ccc(S(=O)(=O)N4CCCCC4)cc3)n2)c1 [Compound 12o, N-(4-(3,5-dimethylphenyl)thiazol-2-yl)-4-(piperidin-1-ylsulfonyl)benzamide] | 93.2% | 98.2% | inactive | 170.36% | 92.91% | –
CCN(c1ccccc1)S(=O)(=O)c1ccc(C(=O)Nc2nc(-c3cc(C)ccc3C)cs2)cc1 [Compound 58d, N-(4-(2,5-dimethylphenyl)thiazol-2-yl)-4-(N-ethyl-N-phenylsulfamoyl)benzamide] | 89.8% | 105% | inactive | 74.73% | 81.42% | –
Cc1ccc(C)c(-c2csc(N(C)C(=O)c3ccc(S(=O)(=O)N4CCCCC4)cc3)n2)c1 [Compound 34c, N-(4-(2,5-dimethylphenyl)thiazol-2-yl)-N-methyl-4-(piperidin-1-ylsulfonyl)benzamide] | 105% | 101% | inactive | 143.05% | 97.43% | –
Cc1ccc(C)c(-c2nc(NC(=O)c3ccc(S(=O)(=O)N4CCCCC4)cc3)sc2N2CCCCC2)c1 [Compound 18h, N-(4-(2,5-dimethylphenyl)-5-(piperidin-1-yl)thiazol-2-yl)-4-(piperidin-1-ylsulfonyl)benzamide] | 99.9% | 99.2% | completely inactive | 99.96% | 89.45% | –
Cc1ccc(-c2csc(NC(=O)c3ccc(S(=O)(=O)N4CCCCC4)cc3)n2)c(C)c1 [Compound 12m, N-(4-(2,4-dimethylphenyl)thiazol-2-yl)-4-(piperidin-1-ylsulfonyl)benzamide] | 86.7% | 98.5% | inactive | 161.33% | 101.40% | –
CCCc1csc(NC(=O)c2ccc(S(=O)(=O)N3CCCCC3)cc2)n1 [Compound 12i, 4-(piperidin-1-ylsulfonyl)-N-(4-propylthiazol-2-yl)benzamide] | 94.2% | 99.2% | None of these molecules had any NF-κB activity | 112.46% | 122.66% | –
Cc1ccc(C)c(-c2nc(NC(=O)c3ccc(S(=O)(=O)N4CCCCC4)cc3)sc2Br)c1 [Compound 18n, N-(5-bromo-4-(2,5-dimethylphenyl)thiazol-2-yl)-4-(piperidin-1-ylsulfonyl)benzamide] | 198% | 133% | – | 154.54% | 84.46% | –
CCCCCc1sc(NC(=O)c2ccc(S(=O)(=O)N3CCCCC3)cc2)nc1-c1cc(C)ccc1C [Compound 18t, N-(4-(2,5-dimethylphenyl)-5-pentylthiazol-2-yl)-4-(piperidin-1-ylsulfonyl)benzamide] | 132% | 119% | loss in activity | 213.25% | 110.37% | –
C#CCN(CC)S(=O)(=O)c1ccc(C(=O)Nc2nc(-c3cc(C)ccc3C)cs2)cc1 [Compound 72b, N-(4-(2,5-dimethylphenyl)thiazol-2-yl)-4-(N-ethyl-N-(prop-2-yn-1-yl)sulfamoyl)benzamide] | 109% | 105% | lost their activity | 129.85% | 81.42% | –
Cc1ccc(C)c(-c2nc(NC(=O)c3ccc(S(=O)(=O)N4CCCCC4)cc3)sc2-c2ccco2)c1 [Compound 18j, N-(4-(2,5-dimethylphenyl)-5-(furan-2-yl)thiazol-2-yl)-4-(piperidin-1-ylsulfonyl)benzamide] | 102% | 100% | completely inactive | 160.49% | 107.56% | –
C#CC1CCN(S(=O)(=O)c2ccc(C(=O)Nc3nc(-c4cc(N=[N+]=[N-])ccc4C)cs3)cc2)CC1 [Compound 73, N-(4-(5-azido-2-methylphenyl)thiazol-2-yl)-4-((4-ethynylpiperidin-1-yl)sulfonyl)benzamide] | 398% | 363% | – | 197.10% | 84.53% | –
C#Cc1sc(NC(=O)c2ccc(S(=O)(=O)N3CCCCC3)cc2)nc1-c1cc(C)ccc1C [Compound 18o, N-(4-(2,5-dimethylphenyl)-5-ethynylthiazol-2-yl)-4-(piperidin-1-ylsulfonyl)benzamide] | 153% | 118% | weak activity | 101.71% | 111.27% | –
CCCC#Cc1sc(NC(=O)c2ccc(S(=O)(=O)N3CCCCC3)cc2)nc1-c1cc(C)ccc1C [Compound 18q, N-(4-(2,5-dimethylphenyl)-5-(pent-1-yn-1-yl)thiazol-2-yl)-4-(piperidin-1-ylsulfonyl)benzamide] | 242% | 393% | most potent | 215.78% | 105.84% | very potent
Cc1ccc(C)c(-c2csc(NC(=O)c3ccc(S(=O)(=O)N4CCCCC4)nc3)n2)c1 [Compound 46b, N-(4-(2,5-dimethylphenyl)thiazol-2-yl)-6-(piperidin-1-ylsulfonyl)nicotinamide] | 115% | 100% | none of these modifications at site D or E were tolerated | 146.35% | 88.57% | –
Cc1ccc(Br)c(-c2csc(NC(=O)c3ccc(S(=O)(=O)N4CCCCC4)cc3)n2)c1 [Compound 12d, N-(4-(2-bromo-5-methylphenyl)thiazol-2-yl)-4-(piperidin-1-ylsulfonyl)benzamide] | 223% | 254% | active; also recorded: most potent | 197.32% | – | –
CCc1sc(NC(=O)c2ccc(S(=O)(=O)N3CCCCC3)cc2)nc1-c1cc(C)ccc1C [Compound 18r, N-(4-(2,5-dimethylphenyl)-5-ethylthiazol-2-yl)-4-(piperidin-1-ylsulfonyl)benzamide] | 179% | 179% | retained activity | – | 103.66% | –
Cc1ccc(C)c(Cc2csc(NC(=O)c3ccc(S(=O)(=O)N4CCCCC4)cc3)n2)c1 [Compound 12f, N-(4-(2,5-dimethylbenzyl)thiazol-2-yl)-4-(piperidin-1-ylsulfonyl)benzamide] | 108% | 102% | inactive | – | 97.02% | –
Cc1ccc(C)c(-c2nc(NC(=O)c3ccc(S(=O)(=O)N4CCCCC4)cc3)sc2C#CCCCO)c1 [Compound 18u, N-(4-(2,5-dimethylphenyl)-5-(5-hydroxypent-1-yn-1-yl)thiazol-2-yl)-4-(piperidin-1-ylsulfonyl)benzamide] | 134% | 100% | – | – | 104.08% | –
